Measured values from patent publication USRE50724E1, “4-membered ring carboxamides used as nematicides” (SYNGENTA CROP PROTECTION AG, priority 2013, dated 2026).

The molecules below were run on Heterodera schachtii (assay: Heterodera schachtii (sugar beet cyst nematode), nematicide, contact activity: juvenile paralysis in 16-well assay plates). Conditions: 200 ppm, approx. 500 juveniles per well, 24 hours incubation at 25° C. in darkness, read-out: nematode immobilization compared to the untreated control.
Type: in vivo
Procedure: Heterodera schachtii (Sugar Beet Cyst Nematode), Nematicide, Contact Activity
The tested application rate of each compound was 200 ppm. All solutions were brought to a concentration of 400 ppm, respectively, as they were subsequently diluted by adding the equivalent amount of water containing juvenile nematodes. After preparation of the suspensions, 1 ml of each suspension and concentration was transferred to 16-well assay plates with a total of three replicates per treatment. Approximately 500 juveniles of Heterodera schachtii were added in 1 ml of water to each well. Nematodes in water served as controls. The plates were placed in a dark box and stored at room temperature. Nematode paralysis was determined after 24 hours incubation at 25° C. in darkness.

| Compound | pest or weed control at 200 ppm |
| --- | --- |
| O=C(N[C@H]1CC[C@H]1c1ccc(Cl)cc1Cl)c1nccnc1Cl [Compound 61.3, 3-chloro-N-[(1S,2S)-2-(2,4-dichlorophenyl)cyclobutyl]pyrazine-2-carboxamide] | > 75% |
| O=C(N[C@H]1CC[C@H]1c1ccc(Cl)cc1Cl)c1ncccc1C(F)(F)F [Compound 61.4, N-[(1S,2S)-2-(2,4-dichlorophenyl)cyclobutyl]-3-(trifluoromethyl)pyridine-2-carboxamide] | > 75% |
| COc1cccnc1C(=O)N[C@H]1CC[C@H]1c1ccc(Cl)cc1 [Compound 61.11, N-[(1S,2S)-2-(4-chlorophenyl)cyclobutyl]-3-methoxypyridine-2-carboxamide] | > 75% |
| O=C(N[C@H]1CC[C@H]1c1ccc(Cl)cc1)c1sccc1Br [Compound 61.14, 3-bromo-N-[(1S,2S)-2-(4-chlorophenyl)cyclobutyl]thiophene-2-carboxamide] | > 75% |
| O=C(N[C@H]1CC[C@H]1c1ccc(Cl)cc1)c1ncccc1Br [Compound 61.15, 3-bromo-N-[(1S,2S)-2-(4-chlorophenyl)cyclobutyl]pyridine-2-carboxamide] | > 75% |
| O=C(N[C@H]1CC[C@H]1c1ccc(Cl)cc1)c1ccccc1Br [Compound 61.21, 2-bromo-N-[(1S,2S)-2-(4-chlorophenyl)cyclobutyl]benzamide] | > 75% |
| O=C(N[C@H]1CC[C@H]1c1ccc(Cl)cc1)c1c(F)cccc1Cl [Compound 61.22, 2-chloro-N-[(1S,2S)-2-(4-chlorophenyl)cyclobutyl]-6-fluorobenzamide] | > 75% |
| Cc1ncccc1C(=O)N[C@H]1CC[C@H]1c1ccc(Cl)cc1 [Compound 61.23, N-[(1S,2S)-2-(4-chlorophenyl)cyclobutyl]-2-methylpyridine-3-carboxamide] | > 75% |
| COc1cccc(F)c1C(=O)N[C@H]1CC[C@H]1c1ccc(Cl)cc1 [Compound 61.24, N-[(1S,2S)-2-(4-chlorophenyl)cyclobutyl]-2-fluoro-6-methoxybenzamide] | > 75% |
| Cc1cccc(F)c1C(=O)N[C@H]1CC[C@H]1c1ccc(Cl)cc1 [Compound 61.25, N-[(1S,2S)-2-(4-chlorophenyl)cyclobutyl]-2-fluoro-6-methylbenzamide] | > 75% |
| Cc1nccnc1C(=O)N[C@H]1CC[C@H]1c1ccc(Cl)cc1 [Compound 61.26, N-[(1S,2S)-2-(4-chlorophenyl)cyclobutyl]-3-methylpyrazine-2-carboxamide] | > 75% |
| O=C(N[C@H]1CC[C@H]1c1ccc(Cl)cc1)c1sccc1Cl [Compound 61.36, 3-chloro-N-[(1S,2S)-2-(4-chlorophenyl)cyclobutyl]thiophene-2-carboxamide] | > 75% |
| O=C(N[C@H]1CC[C@H]1c1ccc(Cl)cc1)c1ncccc1Cl [Compound 61.46, 3-chloro-N-[(1S,2S)-2-(4-chlorophenyl)cyclobutyl]pyridine-2-carboxamide] | > 75% |
| O=C(N[C@H]1CC[C@H]1c1ccc(Cl)cc1)c1ncccn1 [Compound 61.47, N-[(1S,2S)-2-(4-chlorophenyl)cyclobutyl]pyrimidine-2-carboxamide] | > 75% |
| O=C(N[C@H]1CC[C@H]1c1ccc(Cl)cc1)c1ccsc1Cl [Compound 61.52, 2-chloro-N-[(1S,2S)-2-(4-chlorophenyl)cyclobutyl]thiophene-3-carboxamide] | > 75% |
| O=C(N[C@H]1CC[C@H]1c1ccc(Cl)cc1)c1ccsc1I [Compound 61.53, N-[(1S,2S)-2-(4-chlorophenyl)cyclobutyl]-2-iodothiophene-3-carboxamide] | > 75% |
| O=C(N[C@H]1CC[C@H]1c1ccc(Cl)cc1)c1ccsc1C(F)(F)F [Compound 61.54, N-[(1S,2S)-2-(4-chlorophenyl)cyclobutyl]-2-(trifluoromethyl)thiophene-3-carboxamide] | > 75% |
| COc1cccnc1C(=O)N[C@H]1CC[C@H]1c1ccc(Cl)cc1Cl [Compound 61.56, N-[(1S,2S)-2-(2,4-dichlorophenyl)cyclobutyl]-3-methoxypyridine-2-carboxamide] | > 75% |
| COc1ccccc1C(=O)N[C@H]1CC[C@H]1c1ccc(Cl)cc1Cl [Compound 61.58, N-[(1S,2S)-2-(2,4-dichlorophenyl)cyclobutyl]-2-methoxybenzamide] | > 75% |
| O=C(N[C@H]1CC[C@H]1c1ccc(Cl)cc1Cl)c1sccc1Br [Compound 61.59, 3-bromo-N-[(1S,2S)-2-(2,4-dichlorophenyl)cyclobutyl]thiophene-2-carboxamide] | > 75% |

| Compound | pest or weed control at 200 ppm |
| --- | --- |
| Cc1ccccc1C(=O)N[C@H]1CC[C@H]1c1ccc(Cl)cc1Cl [Compound 61.62, N-[(1S,2S)-2-(2,4-dichlorophenyl)cyclobutyl]-2-methylbenzamide] | > 75% |
| O=C(N[C@H]1CC[C@H]1c1ccc(Cl)cc1Cl)c1ccccc1F [Compound 61.65, N-[(1S,2S)-2-(2,4-dichlorophenyl)cyclobutyl]-2-fluorobenzamide] | > 75% |
| Cc1nccnc1C(=O)N[C@H]1CC[C@H]1c1ccc(Cl)cc1Cl [Compound 61.70, N-[(1S,2S)-2-(2,4-dichlorophenyl)cyclobutyl]-3-methylpyrazine-2-carboxamide] | > 75% |
| O=C(N[C@H]1CC[C@H]1c1ccc(Cl)cc1Cl)c1ccc[nH]1 [Compound 61.72, N-[(1S,2S)-2-(2,4-dichlorophenyl)cyclobutyl]-1H-pyrrole-2-carboxamide] | > 75% |
| Cc1ncoc1C(=O)N[C@H]1CC[C@H]1c1ccc(Cl)cc1Cl [Compound 61.73, N-[(1S,2S)-2-(2,4-dichlorophenyl)cyclobutyl]-4-methyl-1,3-oxazole-5-carboxamide] | > 75% |
| Cc1nscc1C(=O)N[C@H]1CC[C@H]1c1ccc(Cl)cc1Cl [Compound 61.74, N-[(1S,2S)-2-(2,4-dichlorophenyl)cyclobutyl]-3-methyl-1,2-thiazole-4-carboxamide] | > 75% |
| O=C(N[C@H]1CC[C@H]1c1ccc(Cl)cc1Cl)c1sccc1Cl [Compound 61.79, 3-chloro-N-[(1S,2S)-2-(2,4-dichlorophenyl)cyclobutyl]thiophene-2-carboxamide] | > 75% |
| O=C(N[C@H]1CC[C@H]1c1ccc(Cl)cc1Cl)c1ccccc1OC(F)(F)F [Compound 61.81, N-[(1S,2S)-2-(2,4-dichlorophenyl)cyclobutyl]-2-(trifluoromethoxy)benzamide] | > 75% |
| Cc1oncc1C(=O)N[C@H]1CC[C@H]1c1ccc(Cl)cc1Cl [Compound 61.83, N-[(1S,2S)-2-(2,4-dichlorophenyl)cyclobutyl]-5-methyl-1,2-oxazole-4-carboxamide] | > 75% |
| O=C(N[C@H]1CC[C@H]1c1ccc(Cl)cc1Cl)c1c(F)cccc1C(F)(F)F [Compound 61.84, N-[(1S,2S)-2-(2,4-dichlorophenyl)cyclobutyl]-2-fluoro-6-(trifluoromethyl)benzamide] | > 75% |
| O=C(N[C@H]1CC[C@H]1c1ccc(Cl)cc1Cl)C1=C(C(F)(F)F)OCCS1 [Compound 61.85, N-[(1S,2S)-2-(2,4-dichlorophenyl)cyclobutyl]-6-(trifluoromethyl)-2,3-dihydro-1,4-oxathiine-5-carboxamide] | > 75% |
| CC1=C(C(=O)N[C@H]2CC[C@H]2c2ccc(Cl)cc2Cl)SCCO1 [Compound 61.86, N-[(1S,2S)-2-(2,4-dichlorophenyl)cyclobutyl]-6-methyl-2,3-dihydro-1,4-oxathiine-5-carboxamide] | > 75% |
| O=C(N[C@H]1CC[C@H]1c1ccc(Cl)cc1Cl)c1ccsc1Br [Compound 61.87, 2-bromo-N-[(1S,2S)-2-(2,4-dichlorophenyl)cyclobutyl]thiophene-3-carboxamide] | > 75% |
| O=C(N[C@H]1CC[C@H]1c1ccc(Cl)cc1Cl)c1cscn1 [Compound 61.88, N-[(1S,2S)-2-(2,4-dichlorophenyl)cyclobutyl]-1,3-thiazole-4-carboxamide] | > 75% |
| O=C(N[C@H]1CC[C@H]1c1ccc(Cl)cc1Cl)c1ccccc1Cl [Compound 61.89, 2-chloro-N-[(1S,2S)-2-(2,4-dichlorophenyl)cyclobutyl]benzamide] | > 75% |
| O=C(N[C@H]1CC[C@H]1c1ccc(Cl)cc1Cl)c1ncccn1 [Compound 61.90, N-[(1S,2S)-2-(2,4-dichlorophenyl)cyclobutyl]pyrimidine-2-carboxamide] | > 75% |
| N#Cc1ccccc1C(=O)N[C@H]1CC[C@H]1c1ccc(Cl)cc1Cl [Compound 61.91, 2-cyano-N-[(1S,2S)-2-(2,4-dichlorophenyl)cyclobutyl]benzamide] | > 75% |
| Cc1cccnc1C(=O)N[C@H]1CC[C@H]1c1ccc(Cl)cc1Cl [Compound 61.92, N-[(1S,2S)-2-(2,4-dichlorophenyl)cyclobutyl]-3-methylpyridine-2-carboxamide] | > 75% |
| O=C(N[C@H]1CC[C@H]1c1ccc(Cl)cc1Cl)c1ccsc1I [Compound 61.96, N-[(1S,2S)-2-(2,4-dichlorophenyl)cyclobutyl]-2-iodothiophene-3-carboxamide] | > 75% |

Same assay, conditions: 24 h, read-out: nematode immobilization compared to the untreated control

| Compound | pest or weed control at 200 ppm |
| --- | --- |
| Cc1nc(C(F)(F)F)c(C(=O)N[C@H]2CC[C@H]2c2ccc(Cl)cc2Cl)s1 [Compound 61.93, N-[(1S,2S)-2-(2,4-dichlorophenyl)cyclobutyl]-2-methyl-4-(trifluoromethyl)-1,3-thiazole-5-carboxamide] | > 75% |
